Experimental data reported in publication PMC5270753, “Novel thermostable antibiotic resistance enzymes from the Atlantis II Deep Red Sea brine pool” (Microbial Biotechnology, 2016).

Assays:
ATII-APH(3′) = test system: T1, ATII-APH(3′); test: pyruvate kinase/lactate dehydrogenase coupled assay, NADH oxidation at […] nm; assay type: biochemical; conditions: phosphorylation of aminoglycoside; Michaelis-Menten fit
T1 construct: full-length ORF (804 nt query), codon-optimised synthetic gene, N-terminal 10x-His tag (pET-16b), E. coli BL21(DE3), Talon-purified

ATII-ABL = test system: T2, ATII-ABL; test: chromogenic nitrocefin hydrolysis at […] nm; assay type: biochemical, uncultured bacterium; conditions: 100 nM enzyme; Michaelis-Menten fit
T2 construct: gene bla

Q: Which Km (ATII-APH(3′)) does the source give for NC[C@H]1O[C@H](O[C@H]2[C@H](O)[C@@H](O[C@H]3O[C@H](CO)[C@@H](O)[C@H](N)[C@H]3O)[C@H](N)C[C@@H]2N)[C@H](O)[C@@H](O)[C@@H]1O [Kanamycin] here?
A: 4.7 ± 0.96 µM

Q: How did the Km (ATII-ABL) turn out when O=C(Cc1cccs1)N[C@@H]1C(=O)N2C(C(=O)O)=C(/C=C/c3ccc([N+](=O)[O-])cc3[N+](=O)[O-])CS[C@H]12 [Nitrocefin] was run?
A: 5.07 ± 1.65 µM

Q: For NCC[C@H](O)C(=O)N[C@@H]1C[C@H](N)[C@@H](O[C@H]2O[C@H](CN)[C@@H](O)[C@H](O)[C@H]2O)[C@H](O)[C@H]1O[C@H]1O[C@H](CO)[C@@H](O)[C@H](N)[C@H]1O [Amikacin], which Km (ATII-APH(3′)) is on record?
A: 5500 ± 1650 µM
